Reference: PubChem BioAssay AID248 (DTP/NCI, 2004)
Several values for one entry are separate records, joined by “and”; a condition that tells them apart may be missing. Equal entries are not always repeated. Inconclusive results and toxic doses are left out. Rule as the data show it: active = T/C of 150% or more; inactive = T/C below 125%.

System: L1210 leukemia ip in BDF1 mice, survival T/C
Assay: NCI In Vivo Anticancer Drug Screen. Data for tumor model L1210 Leukemia (intraperitoneal) in B6D2F1 (BDF1) mice
Conditions: endpoint: mean survival time, higher = longer survival
Method in brief: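 Each compound was tested against a transplantable tumor grown in mice. The endpoint was survival, with treated animals benchmarked against vehicle controls as a simple ratio.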

[1] = dose: 50.0 mg/kg/injection, schedule: Q01DX009 (ip), vehicle: saline
[2] = dose: 100.0 mg/kg/injection, schedule: Q01DX009 (ip), vehicle: saline
[3] = dose: 100.0 mg/kg/injection, schedule: Q04DX003 (ip), vehicle: saline
[4] = dose: 200.0 mg/kg/injection, schedule: Q01DX009 (ip), vehicle: saline
[5] = dose: 200.0 mg/kg/injection, schedule: Q04DX003 (ip), vehicle: saline
[6] = dose: 400.0 mg/kg/injection, schedule: Q01DX009 (ip), vehicle: saline
[7] = dose: 400.0 mg/kg/injection, schedule: Q04DX003 (ip), vehicle: saline
[8] = dose: 100.0 mg/kg/injection, schedule: Q01DX009 (ip), vehicle: Klucel (hydroxypropylcellulose) (HPC)
[9] = dose: 100.0 mg/kg/injection, schedule: Q04DX003 (ip), vehicle: Klucel (hydroxypropylcellulose) (HPC)
[10] = dose: 200.0 mg/kg/injection, schedule: Q01DX009 (ip), vehicle: Klucel (hydroxypropylcellulose) (HPC)
[11] = dose: 200.0 mg/kg/injection, schedule: Q04DX003 (ip), vehicle: Klucel (hydroxypropylcellulose) (HPC)
[12] = dose: 400.0 mg/kg/injection, schedule: Q04DX003 (ip), vehicle: Klucel (hydroxypropylcellulose) (HPC)
[13] = dose: 100.0 mg/kg/injection, schedule: Q01DX001 (ip), vehicle: saline
[14] = dose: 200.0 mg/kg/injection, schedule: Q01DX001 (ip), vehicle: saline
[15] = dose: 400.0 mg/kg/injection, schedule: Q01DX001 (ip), vehicle: saline
[16] = dose: 400.0 mg/kg/injection, schedule: Q01DX009 (ip), vehicle: Klucel (hydroxypropylcellulose) (HPC)
[17] = dose: 200.0 mg/kg/injection, schedule: Q04DX002 (ip), vehicle: Klucel (hydroxypropylcellulose) (HPC)
[18] = dose: 100.0 mg/kg/injection, schedule: Q01DX009 (ip), vehicle: saline with Tween-80
[19] = dose: 200.0 mg/kg/injection, schedule: Q01DX009 (ip), vehicle: saline with Tween-80
[20] = dose: 400.0 mg/kg/injection, schedule: Q01DX009 (ip), vehicle: saline with Tween-80

Measured: T/C

CCC1(c2ccccc2)CN(C)C1=O (stereo not given)
inactive: dose: 25.0 mg/kg/injection, schedule: Q01DX009 (ip), vehicle: saline 103 % of control | dose: 25.0 mg/kg/injection, schedule: Q04DX003 (ip), vehicle: saline 92 % of control | [1] 106 % of control | dose: 50.0 mg/kg/injection, schedule: Q04DX003 (ip), vehicle: saline 97 % of control | [2] 105 % of control | [3] 97 % of control | [4] 102 % of control | [5] 95 % of control | [6] 100 % of control | [7] 92 % of control

OC1CCC2CCCC2C1 (stereo not given)
inactive: [8] 97 % of control | [9] 102 % of control | [10] 97 % of control | [11] 98 % of control | [12] 99 % of control

CC(=O)OC1CCCOC1OC(C)=O (stereo not given)
inactive: [13] 99 % of control | [2] 106 % of control | [14] 100 % of control | [4] 100 % of control | [15] 94 % of control | [6] 95 % of control

CCCCOC(=O)CC(=O)OC
inactive: dose: 100.0 mg/kg/injection, schedule: Q01DX009 (ip), vehicle: acetone 93 % of control | dose: 100.0 mg/kg/injection, schedule: Q04DX003 (ip), vehicle: acetone 100 % of control | dose: 200.0 mg/kg/injection, schedule: Q01DX009 (ip), vehicle: acetone 90 % of control | dose: 200.0 mg/kg/injection, schedule: Q04DX003 (ip), vehicle: acetone 103 % of control | dose: 400.0 mg/kg/injection, schedule: Q01DX009 (ip), vehicle: acetone 93 % of control | dose: 400.0 mg/kg/injection, schedule: Q04DX003 (ip), vehicle: acetone 107 % of control

O=C(CN1CCCCC1)N1CCN(C(=O)CN2CCCCC2)CC1
inactive: dose: 44.0 mg/kg/injection, schedule: Q01DX001 (ip), vehicle: carboxymethylcellulose (CMC) 98 % of control and 100 % of control | dose: 50.0 mg/kg/injection, schedule: Q01DX001 (ip), vehicle: carboxymethylcellulose (CMC) 103 % of control | dose: 67.0 mg/kg/injection, schedule: Q01DX001 (ip), vehicle: carboxymethylcellulose (CMC) 87 % of control and 91 % of control | dose: 100.0 mg/kg/injection, schedule: Q01DX001 (ip), vehicle: carboxymethylcellulose (CMC) 96 % of control | dose: 150.0 mg/kg/injection, schedule: Q01DX001 (ip), vehicle: carboxymethylcellulose (CMC) 91 % of control | dose: 200.0 mg/kg/injection, schedule: Q01DX001 (ip), vehicle: carboxymethylcellulose (CMC) 113 % of control | dose: 400.0 mg/kg/injection, schedule: Q01DX001 (ip), vehicle: carboxymethylcellulose (CMC) 103 % of control

COc1ccc(C(=O)OC(c2ccccc2)c2ccccc2)cc1
inactive: [13] 98 % of control | [14] 100 % of control | [15] 89 % of control

CC1CCCC(C)N1C(=O)Nc1cccc(C(F)(F)F)c1 (stereo not given)
inactive: dose: 100.0 mg/kg/injection, schedule: Q01DX009 (ip), vehicle: gum acacia 108 % of control | dose: 200.0 mg/kg/injection, schedule: Q01DX009 (ip), vehicle: gum acacia 103 % of control

CC(=O)COc1cccc([N+](=O)[O-])c1
inactive: [8] 92 % of control | [10] 90 % of control | [16] 90 % of control

COC(=O)C(=[N+]=[N-])C(F)(F)F
inactive: [1] 95 % of control | [2] 102 % of control | [4] 102 % of control

CC(=O)NNC(=O)C1CCCCN1 (stereo not given)
inactive: dose: 100.0 mg/kg/injection, schedule: Q01DX001 (ip), vehicle: water 101 % of control | dose: 200.0 mg/kg/injection, schedule: Q01DX001 (ip), vehicle: water 100 % of control | dose: 400.0 mg/kg/injection, schedule: Q01DX001 (ip), vehicle: water 103 % of control

Cc1cc(-c2ccccc2O)nc(N(C)CC(=O)O)n1
inactive: dose: 100.0 mg/kg/injection, schedule: Q04DX002 (ip), vehicle: Klucel (hydroxypropylcellulose) (HPC) 94 % of control | [17] 98 % of control | dose: 400.0 mg/kg/injection, schedule: Q04DX002 (ip), vehicle: Klucel (hydroxypropylcellulose) (HPC) 96 % of control

COc1ccc(Cl)cc1NC(=O)Nc1ccc(S(N)(=O)=O)cc1
inactive: [8] 102 % of control | [10] 93 % of control | [16] 94 % of control

COc1cc(NC(=O)c2ccc(Cl)cc2Cl)c(OC)cc1Cl
inactive: dose: 50.0 mg/kg/injection, schedule: Q01DX009 (ip), vehicle: saline with Tween-80 90 % of control | [18] 90 % of control | [19] 96 % of control

c1ccc2c(c1)ccc1cc3cc4cc5c(ccc6ccccc65)cc4cc3cc12
inactive: dose: 50.0 mg/kg/injection, schedule: Q04DX002 (ip), vehicle: Klucel (hydroxypropylcellulose) (HPC) 93 % of control | [17] 90 % of control

CC(=O)OC1CCC2(C)C(CCC3C2CCC2(C)C3CC(OC(C)=O)C2C(C)C2=NCC(C)CC2)C1 (stereo not given)
inactive: [9] 94 % of control | [11] 98 % of control | [12] 105 % of control

[N-]=[N+]=[N-]
inactive: dose: 10.0 mg/kg/injection, schedule: Q01DX001 (ip), vehicle: saline 100 % of control | dose: 20.0 mg/kg/injection, schedule: Q01DX001 (ip), vehicle: saline 100 % of control

NC(=S)N/N=C\C(c1ccccc1)c1ccccc1
inactive: [18] 98 % of control | dose: 100.0 mg/kg/injection, schedule: Q04DX003 (ip), vehicle: saline with Tween-80 96 % of control | [19] 94 % of control | dose: 200.0 mg/kg/injection, schedule: Q04DX003 (ip), vehicle: saline with Tween-80 95 % of control | [20] 96 % of control | dose: 400.0 mg/kg/injection, schedule: Q04DX003 (ip), vehicle: saline with Tween-80 104 % of control

CCOc1ccc(OC(=O)c2ccc(O)cc2)cc1
inactive: [9] 106 % of control | [11] 101 % of control | [12] 96 % of control

Clc1ccc(CSc2ncc(Br)c(N3CC3)n2)cc1
inactive: dose: 100.0 mg/kg/injection, schedule: Q01DX Z (ip), vehicle: methylcellulose (MC) 93 % of control | dose: 200.0 mg/kg/injection, schedule: Q01DX Z (ip), vehicle: methylcellulose (MC) 88 % of control

N=C1c2ccccc2-c2nc3ccccc3c(=Nc3ccccc3C(=O)O)n21
inactive: dose: 100.0 mg/kg/injection, schedule: Q04DX002 (ip), vehicle: saline 89 % of control | dose: 200.0 mg/kg/injection, schedule: Q04DX002 (ip), vehicle: saline 86 % of control | dose: 400.0 mg/kg/injection, schedule: Q04DX002 (ip), vehicle: saline 89 % of control

COc1ccc(C=NCCN=Cc2ccc(OC)c(OC)c2)cc1OC
inactive: [13] 100 % of control | [18] 101 % of control | [3] 92 % of control | [14] 104 % of control | [19] 95 % of control | [5] 87 % of control | [15] 102 % of control | [20] 95 % of control | [7] 92 % of control

CCCCc1ccc(N=Cc2ccc(C=Nc3ccc(CCCC)cc3)cc2)cc1
inactive: [18] 92 % of control | [19] 97 % of control | [20] 94 % of control
